Like-named read-outs stand apart in the source and are kept apart here.
Tests used:
229E mPRO = 229E mPRO (Human coronavirus 229E (HCoV-229E), UniProt P0C6X1); test: 229E mPRO enzymatic assay; assay type: biochemical, Human Coronavirus (HCov) 229E
Description: Compounds were assayed using standard methods to assess compound activity and IC50. […] The assay buffer contained 20 mM of Tris-HCl (pH 7.3), 100 mM of NaCl, 1 mM of EDTA, 5 mM of TCEP and 0.1% BSA.
The compounds were added to an assay plate.
IC50 values of compounds were calculated with the GraphPad Prism software using the nonlinear regression model of log(inhibitor) vs. response—Variable slope (four parameters). The inhibition activity was calculated using the formula below, IC50 values was calculated using the Inhibition % data. Inhibition %=[(Sample−Average ZPE)/(Average HPE−Average ZPE)]*100%
^#HEP: Hundred percent effect controls. Containing substrate+enzyme+1 μM GC376.
Containing enzyme+substrate, no compound.
Sample: Compound activity testing wells. Containing compound+enzyme+substrate.
BG: Compound background control wells. Containing compound+substrate, no enzyme.

HCoV 229E = HCoV 229E cytopathic effect (CPE) assay; assay type: cell-based, Human Coronavirus (HCov) 229E; details: read-out: 229E CPE EC50 (μM)
Description: The antiviral activity of compounds was calculated based on the protection of the virus-induced CPE at each concentration normalized by the virus control.
Reagents and instruments used in this assay include luminescent cell viability assay kit CellTiter Glo (Promega) and Microplate Reader Synergy2 (BioTek).
Cytopathic effect (CPE) was measured by CellTiter Glo following the manufacturer's manual. The antiviral activity of compounds was calculated based on the protection of the virus-induced CPE at each concentration normalized by the virus control.

Sequence of 229E mPRO (P0C6X1 2966-3267 limits assumed): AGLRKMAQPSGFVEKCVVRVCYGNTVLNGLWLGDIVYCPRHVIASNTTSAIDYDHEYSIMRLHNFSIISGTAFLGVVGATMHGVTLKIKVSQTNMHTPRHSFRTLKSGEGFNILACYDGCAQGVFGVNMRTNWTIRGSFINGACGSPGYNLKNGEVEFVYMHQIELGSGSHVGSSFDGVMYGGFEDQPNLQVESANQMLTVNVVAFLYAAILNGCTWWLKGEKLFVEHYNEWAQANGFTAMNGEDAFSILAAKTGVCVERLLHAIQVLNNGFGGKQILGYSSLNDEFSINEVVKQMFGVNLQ

Row | SMILES | IC50 (229E mPRO; read-out: 229E mPRO IC50) | IC50 (229E mPRO) | EC50 (HCoV 229E)
1 | COc1cccc2[nH]c(C(=O)N3C[C@@H]4CC[C@@H]4[C@H]3C(=O)N[C@H](C#N)C[C@@H]3CCNC3=O)cc12 (single isomer, unassigned) [547 (Isomer 2)] | < 2000 nM |  | 
2 | N#C[C@H](C[C@@H]1CCCNC1=O)NC(=O)C1CC2(CCC2)CN1C(=O)c1cc2cccc(Cl)c2[nH]1 (single isomer, unassigned) [729 (Isomer 1)] | < 2000 nM |  | 
3 | N#C[C@H](C[C@@H]1CCCNC1=O)NC(=O)C1CC2(CCC2)CN1C(=O)c1cc2cccc(Cl)c2[nH]1 (single isomer, unassigned) [731 (Isomer 1)] |  | < 2000 nM | < 2 µM
4 | N#C[C@H](C[C@@H]1CCCNC1=O)NC(=O)C1CC2(CN1C(=O)c1cc3cccc(Cl)c3[nH]1)CC(F)(F)C2 (single isomer, unassigned) [743 (Isomer 2)] |  | < 2000 nM | < 2 µM
